Where no end group is shown, it is not given here.
Tests used:
[1] = tested on: apoptotic cells within Alzheimer's disease-affected brain tissues; assay: In vivo near infrared imaging of Alzheimer's disease model mice with Cy7.5-labeled peptide; parameters: species or system mouse; details: intravenous
From the text: (§1) As an Alzheimer's disease model, a transgenic mouse model over-expressing Amyloid precursor protein (APP) gene and Presenilin 1 (PS1) gene was used. The model animal has a characteristic that apoptosis together with extracellular accumulation of beta amyloid protein (one of the characteristics of Alzheimer's disease) gradually increases according to an increase of age. On mice, from a 5 month old mouse (early stage of alzheimer's disease) to a 13 month old mouse (severe stage), this experiment was performed according to the progression of disease. The apoptosis was confirmed by TUNEL (in vitro terminal deoxynucleotidyl transferase-mediated dUTP nick-end labeling) assay according to the manufacturer (Roche)'s instructions. In this method, biotin-dUTP is labeled at the end of a cleaved DNA fragment specifically occurring in apoptosis by using terminal deoxynucleotidyl transferase enzyme, and then fluorescence staining is performed by streptavidin-rhodamine (red fluorescent dye).
The Alzheimer's disease-affected mouse (5, 7, 9, and […]) models were intravenously injected with the inventive peptide (ApoPep-1) labeled with Cy7.5 near infrared fluorescence, under isoflurane anesthesia, to a final concentration of 50 μM. After 2 hours from the injection, a head region was imaged by near infrared imaging, and each brain was isolated and imaged by near infrared imaging. An in vivo near infrared fluorescence image was imaged by an Optix exPlore machine (ART). Also, by using the machine's own software, each image was standardized.
The peptide used in the present invention was synthesized by a standard Fmoc method, and separated by HPLC machine. The synthesis of the peptide was carried out by special companies (Peptron and Anygen). The peptide was synthesized in such a manner that N-terminal was combined with fluorescein isothiacyanate (FITC). Otherwise, after the synthesis of the peptide, N-terminal was combined with Cy7.5 near infrared fluorescent dye.

[2] = tested on: apoptotic cells within Parkinson's disease-affected brain tissues; assay: Immunofluorescence / TUNEL staining of Parkinson's disease-affected brain tissues injected with FITC-labeled peptide; assay type: in vivo, mouse
From the text: as §1, with “The apoptosis was confirmed by TUNEL (in vitro terminal deoxynucleotidyl transferase-mediated dUTP nick-end labeling) assay according to the manufacturer (Roche)'s instructions.” left out
[…] Then, an in vivo near infrared fluorescence image was imaged. […]
Also, in order to monitor the therapeutic effect of a drug, after 30 minutes from the administration of MPTP, amantadine used as a Parkinson's disease therapeutic agent was intraperitoneally administered into each mouse in a dose of 25 mg/kg a total of seven times with a one day interval. […] Apoptosis was analyzed in the same manner as described in Example <1-1>.

[3] = tested on: apoptotic cells within Alzheimer's disease-affected brain tissues; assay: Immunofluorescence staining analysis of Alzheimer's disease-affected brain tissues injected with FITC-labeled peptide; assay type: in vivo; details: frozen brain sections, Alzheimer's disease-affected mouse 13 months old
Experimental: For histological examination, the brain tissues isolated from the mouse (13 months old) injected with the inventive peptide labeled with FITC fluorescence (green), which had been subjected to in vivo imaging in Example <1-1>, were postfixed by 4% paraformaldehyde liquid, and immersed in Sucrose/phosphate buffer for 24 hours. Then, they were prepared as frozen sections with a thickness of 30 μm by cryostat. Immunofluorescence staining on an antibody was carried out by using a secondary antibody labeled with alexa 568 (red fluorescent dye). Each tissue slide was observed by a fluorescence microscope (Zeiss).

[4] = tested on: apoptotic cells within Parkinson's disease-affected brain tissues; assay: In vivo near infrared imaging of MPTP-induced Parkinson's disease mice with Cy7.5-labeled peptide; parameters: species or system mouse; details: for near infrared fluorescence at the brain region: Cy7.5-labeled, intravenous, 2 hours
Experimental: (§2) Parkinson's disease was induced by specifically destroying a dopaminergic neuron existing in substantia nigra of a brain by a drug. For this, to each of C57BL male mice (koatech) (body weight: 21 to 23 g), MPTP (1-methyl-4-phenyl-1,2,3,6-tetrahydro pyridine hydrochloride) (Sigma) was administered with a single dose of 15 mg/kg. MPTP administration was carried out with an interval of 2 hours, four times through intraperitoneal injection, and each mouse was administered with MPTP in a total amount of 60 mg/kg.
(§3) On day 7, 14, and 21 from the administration of MPTP (day 0), the inventive peptide labeled with Cy7.5 was injected. The peptide was intravenously injected into a tail vein to a final concentration of 50 μM, under isoflurane anesthesia, and was circulated for 2 hours. Then, an in vivo near infrared fluorescence image was imaged. The mouse on which the experiment had been completed was immediately subjected to anesthesia and euthanasia. Then, a brain tissue sample was collected. From the dead mouse, blood was immediately removed by saline solution flushing through heart, and primarily fixed by re-flushing of 4% paraformaldehyde solution. The primarily fixed brain was collected from the mouse, and then postfixed by being placed for 1 day in 30% sucrose/phosphate buffer solution, and placed for 1 day in 4% paraformaldehyde phosphate buffer solution. The fixed brain tissues were rapidly frozen by dry ice, and formed into a block for frozen fractions. At some desired time, the stored brain block was prepared as frozen fractions, and used for various staining methods.

[5] = tested on: Parkinson's disease-affected mouse treated with MPTP; assay: Monitoring the therapeutic effect of amantadine in MPTP-induced Parkinson's disease mice; assay type: in vivo
Experimental: as §2, §3
Also, in order to monitor the therapeutic effect of a drug, after 30 minutes from the administration of MPTP, amantadine used as a Parkinson's disease therapeutic agent was intraperitoneally administered into each mouse in a dose of 25 mg/kg a total of seven times with a one day interval. On day 7 from the administration of amantadine, the inventive peptide labeled with Cy7.5 was injected, and imaging and tissue staining were carried out in the same manner as described above. Apoptosis was analyzed in the same manner as described in Example <1-1>.

[6] = Parkinson's disease-affected mouse (MPTP), 50 μM final
[7] = amantadine following MPTP vs MPTP alone, brain tissues

Compound	near infrared fluorescence intensity level at head region according to disease progression ([1]; APP/PS1 Alzheimer's disease-affected mice 5, 7, 9, 13 months old, Cy7.5-labeled, 50 μM final, 2 hours after injection)	near infrared fluorescence at the brain region, Alzheimer's disease-affected mouse versus normal mouse ([1]; Alzheimer's disease-affected mouse (7 and 9 months old) vs normal (wild type) mouse (8 months old), 2 hours)	co-location of peptide (green) with TUNEL staining (apoptosis biomarker) ([2]; brain tissues of MPTP mice and mice administered with amantadine following MPTP (FIG. 7c))	co-location of peptide (green) with TUNEL staining (apoptosis biomarker) ([2]; brain tissues of Parkinson's disease-affected mouse treated with MPTP, FITC-labeled peptide)	co-staining of peptide (green) with antibody to Caspase-3 (apoptosis biomarker) [3]	distribution of peptide relative to brain blood vessel (α-SMA antibody staining); passing through blood-brain barrier [3]	near infrared fluorescence at the brain region [4, 6]	near infrared fluorescence at a brain region with the lapse of time ([4]; after 1 week, 2 weeks and 3 weeks from administration of MPTP)	near infrared fluorescence at the brain region ([4]; normal (wild type) mouse)	near infrared fluorescence of Cy7.5-labeled inventive peptide at brain region ([5]; amantadine 25 mg/kg intraperitoneal, seven times at one day interval following MPTP, vs mouse administered with MPTP)	number of TUNEL-stained apoptotic cells ([5]; amantadine following MPTP vs MPTP alone)	TUNEL staining (apoptosis biomarker) [5, 7]	antibody staining of tyrosine hydroxylase (TH) (dopaminergic neuron-specific marker) [5, 7]	number of TH-stained dopaminergic neurons ([5]; amantadine following MPTP vs MPTP alone, p<0.01)	near infrared fluorescence at brain region ([1]; mouse (8 months old), Cy7.5-labeled, 2 hours after injection)
inventive peptide: peptide targeting apoptotic cells, amino acid sequence CQRPPR (SEQ ID NO: 1), named ApoPep-1; N-terminal labeled with FITC or Cy7.5 (also: N-terminal FITC or Cy7.5 label)	near infrared fluorescence intensity level increased	much stronger near infrared fluorescence at the brain region than the normal mouse	located at the same cell	concurrently located at the same cell	concurrently stained at the same cell	distributed within brain parenchyma outside of a brain blood vessel	strong near infrared fluorescence was observed	became stronger	hardly observed	–	–	–	–	–	–
NC12CC3CC(CC(C3)C1)C2 [amantadine]	–	–	–	–	–	–	–	–	–	lower near infrared fluorescence than the mouse administered with MPTP	reduction of apoptosis in neurons	decrease of TUNEL staining	increase of antibody staining of tyrosine hydroxylase	statistically significantly increased	–
control peptide: control peptide (amino acid sequence, NSSSVDK) [reference compound]	–	–	–	–	–	–	hardly observed	–	–	–	–	–	–	–	hardly observed
